pEC50: −log10 of the molar value. Numbered stars: 1 amine (or outer) side, 2 acyl side, 3 side chain; on linkers, the order of the positions; unused ones are H or OH. Bridge positions count the residues as written; N and C are the ends. Square brackets hold non-standard residues; d marks the D form. Peptide text beside a SMILES is read from it. ξ: configuration not given here. ξαMeNle(6-ylidene) = CC(CCCC=[*:3])(N[*:1])C(=O)[*:2]; X1 = CC(CCCCCCC=[*:3])(N[*:1])C(=O)[*:2]
Legend:
Format in all cases: cell-based
[1] = Hepatotoxicity assay, trypan blue exclusion, 24 h; details: female, primary human hepatocytes, human hepatocytes, 24 h
Description: (§1) NCI-510A, epithelial (small cell lung cancer, SCLC), ATCC-HBT-124; and Hepatocytes (normal liver), from a donor was provided by Foundation DTI-Donation & Transplantation Institute from surgical wastes and from organs not suitable for transplantation
(§2) Human liver from a donor was subjected to hepatocyte isolation by using a two-step tissue microperfusion technique taking maximum care to avoid anoxia before cannulation, since hepatocytes are cells highly sensitive to oxygen levels. An initial anoxic state could result in a low viability of the cells, and will later affect their metabolic capacity in the culture. Briefly, liver tissue was cannulated by using the accessible vessels with a 1 mm-diameter needle. A balanced salt solution was injected to clean the organ by using a peristaltic pump adjusted to a flow rate of 18-20 ml/min. After washing, a solution containing collagenase was added for liver disintegration. The cell suspension obtained using this process was filtered and centrifuged and, after a couple of washings to remove collagenase, cells were re-suspended in culture medium Ham's F-12/William (1:1) medium supplemented with 2 mM glutamine, […] sodium selenite, 2% newborn calf serum, 50 mU/ml penicillin, 50 μg/ml streptomycin, 0.1% bovine serum albumin, 1.68 mM NAME, 26 mM sodium bicarbonate, 25 μg/ml transferrin, 65.5 μM ethanolamine, 7.2 μM linoleic acid, 17.5 mM glucose, 6.14 mM ascorbic acid and 10 nM insulin.
(§3) After resuspension, a cell aliquot was removed and viability was determined by cell counting using the trypan blue exclusion method. Trypan blue uptake is the result of cell membrane alteration and in consequence of cell death. Thus, to quantify cell viability, 0.4% trypan blue in saline was added to the cells and these were immediately loaded in a Neubauer chamber. Viable cells were counted in 5 different fields under the optical microscope as non-blue cells. % Viability=Number of non-blue cells×100/Number of total cells Viability and Hepatoxicity Assay
(§4) Human hepatocytes isolated and re-suspended as described before were seeded at 100,000 viable cells/well on 96 collagen-coated plates in order to assess compound's cytotoxicity. After 1 hour in culture, medium was renewed to eliminate cell debris. Cultured human hepatocytes were allowed to stay in culture for 24 hours prior performing the experiments. After 24 h, the compounds to be tested were added to calculate the dose/response curve at the starting concentration of 400 μM with serial dilutions. Each experiment was performed in triplicate. Cells were incubated during 24 h in incubator under CO2 atmosphere at 37° C.
(§5) The viability was determined by cell counting using the trypan blue exclusion method. % Viability=Number of non-blue cells×100/Number of total cells Statistics

[2] = test system: Human hepatocytes; experiment: Hepatotoxicity assay, trypan blue exclusion, 24 h; details: dose of 4 and 14 μM
Description: as §1, §2, §3, §4, §5

[3] = test system: GBM-18
Experimental: GMB-18, epithelial (glioblastoma, GMB), from surgical specimens from patients;
(§6) Cell line MCF-7 was cultured in incubator under CO2 (6%) at 37° C. in DMEM high glucose (Dulbecco's Modified Eagle Solution, Gibco-BRL 31966-21) medium with 10% fetal bovine serum inactivated (FBS) (Gibco-BRL 10106-169). Cell lines HL-60, NCI-H524, NCI-H526, NCI-H69, NCI-H82, NCI-H187 and H5B were cultured in an incubator at 37° C. in RPMI-1640 (Sigma R8758) medium with 10% of fetal bovine serum inactivated (FBS) and 2 mM glutamine (Sigma G7513). Cell line NCI-H510A was cultured in incubator in F12K medium with 10% of fetal bovine serum inactivated (FBS). […]
(§7) During the amplification step and the assays, adherent cells were rinsed with DPBS (Dulbecco's Phosphate Buffered Saline, Sigma D1283) three times and afterward treated for 5 minutes with trypsin ([…]) (Gibco-BRL, 15400054) in solution of DPBS at 37° C., and, once detached, transferred in the culturing medium. […] Cells were counted in a Neubauer chamber after labelling with Tripan-Blue.
Cells were incubated during 72 h in incubator under CO2 atmosphere at 37° C. Cell viability was measured by means of MTT (3-(4,5-dimethylthiazol-2-yl)-2,5-diphenyltetrazolium bromide) assay, Alamar Blue® (Biosource DAL1100) and Hexosaminidase activity test, consecutively, following manufacturer instructions. […]

[4] = test system: NCI-H82; details: 72 h
Experimental: NCI-H82, epithelial (small cell lung cancer, SCLC), ATCC-CRL-5811;
Cell line MCF-7 was cultured in incubator under CO2 (6%) at 37° C. in DMEM high glucose (Dulbecco's Modified Eagle Solution, Gibco-BRL 31966-21) medium with 10% fetal bovine serum inactivated (FBS) (Gibco-BRL 10106-169). Cell lines HL-60, NCI-H524, NCI-H526, NCI-H69, NCI-H82, NCI-H187 and H5B were cultured in an incubator at 37° C. in RPMI-1640 (Sigma R8758) medium with 10% of fetal bovine serum inactivated (FBS) and 2 mM glutamine (Sigma G7513). Cell line NCI-H510A was cultured in incubator in F12K medium with 10% of fetal bovine serum inactivated (FBS). Cell line GBM-18 and GBM-27 were cultured in incubator under CO2 (6%) at 37° C. in complete medium (Neurobasal+B27+Glutamax+Growth factors).
During the amplification step and the assays, adherent cells were rinsed with DPBS (Dulbecco's Phosphate Buffered Saline, Sigma D1283) three times and afterward treated for 5 minutes with trypsin ([…]) (Gibco-BRL, 15400054) in solution of DPBS at 37° C., and, once detached, transferred in the culturing medium. No-adherent cells were centrifuged and transferred in the culturing medium. Cells were counted in a Neubauer chamber after labelling with Tripan-Blue.
MCF-7, NCI-H187, NCI-H69, NCI-H526 and H5B cells were seeded at a density of 5000 cells/well; NCI-H524 and NCI-H82 were seeded at a density of 2500 cells/well; HL-60 and NCI-H510A at 10000 cells/well in 100 μl of medium in 96 well plates. After 24 h, the compounds to be tested were added to calculate the dose/response curve at the starting concentration of 100 μM with serial dilutions (1:1). Controls were the untreated cells. Each experiment was performed in triplicate.
(§8) Cells were incubated during 72 h in incubator under CO2 atmosphere at 37° C. Cell viability was measured by means of MTT (3-(4,5-dimethylthiazol-2-yl)-2,5-diphenyltetrazolium bromide) assay, Alamar Blue® (Biosource DAL1100) and Hexosaminidase activity test, consecutively, following manufacturer instructions.
MTT: 1. Stock solution of MTT (475989 Calbiochem) was 5 mg/ml in PBS 1×. As negative control (experiment noise) 3 wells were treated with 20 μl/well of a solution of SDS 10% in H2O. The same control was used for Alamar Blue/Hexosaminidase. 10 μl/well of MTT solution were added and the plate was incubated for 3-4 hr. The medium was discarded and 100 μl of extracting buffer (PBS 1×, 15% SDS, 50% […] N,N-Dimethylformamide, pH 4,7) were added to each well. Plates were incubated for 16 h at room temperature under orbital shaking. Absorbance at 570 nm was finally measured.
Alamar Blue: 10 μl Alamar Blue solution was added to each well and the plates were incubated for […] in the incubator. Fluorescence ratio at 535/590 (excitation/emission) was measured in Cytofluor (Millipore) fluorimeter. Blank control was determined by lysis of untreated cells with con 2% of Triton X100, right before adding Alamar Blue solution.
Hexosaminidase activity test: after Alamar Blue lecture, medium was discarded and plates were rinsed once with PBS. 60 μl hexosaminidase substrate (p-nitrophenol-N-acetyl-beta-D-glucosamide 7.5 mM [Sigma N-9376], sodium citrate 0.1 M, pH 5.0, 0.25% Triton X-100) was added to each well and the plates were incubated at 37° C. for 2-5 h, according to the cell type (hexosaminidase activity changes according to the cell type). […] Blank control was the same as described before.
Data analysis was performed calculating the percentage of cell viability normalized vs. the values of negative control, which was considered equal to 100%. The dose/response curve was fitted through the sigmoidal equation dose-response (variable slope) and the EC50 values were calculated as follow: Y=Bottom+(Top−Bottom)/(1+10^{[(Log EC50−X)*HillSlope]},

[5] = test system: HL-60
Experimental: HL-60, promyeloblast (acute myelocytic leukemia, AML), ECACC: 98070106;
as §6
as §7, with “Tripan-Blue. […]” for “Tripan-Blue.”
as §8
MTT: 1. […] Absorbance at 570 nm was finally measured. […]

In the case of `CC(C)C[C@H](NC(=O)[C@H](CCCCN)NC(=O)[C@@H](NC(=O)[C@@H](N)CCCNC(=N)N)C(C)C)C(=O)N[C@H](C(=O)N[C@@H](CC(N)=O)C(=O)N[C@@H](CC(C)C)C(=O)NC1(C)CCCCCCC=CCCCC(C)(C(=O)N[C@H](C(=O)N2CCC[C@H]2C(N)=O)C(C)C)NC(=O)[C@H](CCC(=O)O)NC(=O)[C@H](CCCNC(=N)N)NC(=O)[C@H](CC(C)C)NC(=O)[C@H]([C@@H](C)O)NC(=O)[C@H](C)NC(=O)[C@H](Cc2ccccc2)NC1=O)C(C)C` (stereo partly drawn) [H14] (H-RVKLVNL[X1]FATLRE[ξαMeNle(6-ylidene)]VP-NH2; staple 8-15; N-terminus and C-terminus assumed), the viability at 24 h, 4 µM ([1]; H14 4 μM) was 113%, the viability at 24 h, 14 µM ([1]; H14 14 μM) was 119% and the “toxicity for normal hepatocytes (in words)” value [2] was “not toxic”. The pEC50 [3] was about 5.40, the pEC50 [4] was about 4.90 and the pEC50 [5] was about 4.85.

Reference: US11440939B2, “Anticancer peptides” (IDP DISCOVERY PHARMA, S.L., priority 2017, dated 2022)
